Results as given in US20230077362A1 (CORTEVA AGRISCIENCE LLC, priority 2019, published 2023).
Like-named read-outs stand apart in the source and are kept apart here.

Legend:
[1] = tested on: Beet Armyworm (Spodoptera exigua) ("BAW"), second instar larvae; experiment: Bioassay on beet armyworm (BAW), 128-well diet tray assay; format: in vivo; conditions: for pest or weed control at 50 µg/cm2: Spodoptera exigua; for BAW rating: C = not tested, D = no activity noticed
Method in brief: (§1)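 Covered trays were held at 25° C. under a 14:10 light-dark cycle for five to seven days. Percent mortality was then scored in each well, and activity across eight wells was averaged.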

[2] = tested on: Cabbage Looper (Trichoplusia ni) ("CL"), second instar larvae; experiment: Bioassay on cabbage looper (CL), 128-well diet tray assay; format: in vivo; conditions: for CL rating: C = not tested, D = no activity noticed
Method in brief: as §1

[3] = Trichoplusia ni, read-out: CL rating
[4] = read-out: BAW (Biological Results, rating)
[5] = Trichoplusia ni, read-out: CL (Biological Results, rating)

Compound	pest or weed control at 50 µg/cm2 ([1]; read-out: BAW rating)	pest or weed control at 50 µg/cm2 [2, 3]	pest or weed control at 50 µg/cm2 [1, 4]	pest or weed control at 50 µg/cm2 [2, 5]	further results
COC(C)c1ccc(C)cc1N1C(=O)CS/C1=N\C(=O)Nc1ccc(-c2ncn(-c3ccc(OC(F)(F)F)cc3)n2)cc1C(C)=O (stereo not shown) [Compound J397, (Z)-1-(2-Acetyl-4-(1-(4-(trifluoromethoxy)phenyl)-1H-1,2,4-triazol-3-yl)phenyl)-3-(3-(2-(1-methoxyethyl)-5-methylphenyl)-4-oxothiazolidin-2-ylidene)urea]	50 to 100%	50 to 100%	–	–	–
CC(C)c1cc(F)c(N(C)C)cc1N1C(=O)CS/C1=N\C(=O)Nc1ccc(-c2ncn(-c3ccc(OC(F)(F)F)cn3)n2)cc1F [Compound J261, (Z)-1-(3-(5-(Dimethylamino)-4-fluoro-2-isopropylphenyl)-4-oxothiazolidin-2-ylidene)-3-(2-fluoro-4-(1-(5-(trifluoromethoxy)pyridin-2-yl)-1H-1,2,4-triazol-3-yl)phenyl)urea]	–	–	50 to 100%	50 to 100%	–
COC(C)c1ccc(C)cc1N1C(=O)CS/C1=N\C(=O)Nc1ccc(-c2ncn(-c3ccc(C(F)(F)F)cn3)n2)cc1F (stereo not shown) [Compound J280, (Z)-1-(2-Fluoro-4-(1-(5-(trifluoromethyl)pyridin-2-yl)-1H-1,2,4-triazol-3-yl)phenyl)-3-(3-(2-(1-methoxyethyl)-5-methylphenyl)-4-oxothiazolidin-2-ylidene)urea]	–	–	50 to 100%	50 to 100%	–
CC(=O)N(C)c1ccc(C(C)C)c(N2C(=O)CS/C2=N\C(=O)Nc2ccc(-c3ncn(-c4ccc(OC(F)(F)F)cc4)n3)cc2C)c1 [Compound J199, (Z)-N-(4-Isopropyl-3-(2-(((2-methyl-4-(1-(4-(trifluoromethoxy)phenyl)-1H-1,2,4-triazol-3-yl)phenyl)carbamoyl)imino)-4-oxothiazolidin-3-yl)phenyl)-N-methylacetamide]	–	–	50 to 100%	50 to 100%	–
Cc1ccc(COCC(F)(F)F)c(N2C(=O)CS/C2=N\C(=O)Nc2ccc(-c3ncn(-c4cccc(OC(F)(F)F)c4)n3)cc2F)c1 [Compound J705]	–	–	–	–	BAW rating ([1]; Table ABC, species BAW): A (50-100); CL rating ([2]; Table ABC, species CL): A (50-100)
Cc1ccc(COCC(F)(F)F)c(N2C(=O)CS/C2=N\C(=O)Nc2ccc(-c3ncn(-c4cccc(C(F)(F)F)c4)n3)cc2F)c1 [Compound J710]	–	–	–	–	BAW rating ([1]; Table ABC, species BAW): A (50-100); CL rating ([2]; Table ABC, species CL): A (50-100)
CCOC(C)c1ccc(C)cc1N1C(=O)CS/C1=N\C(=O)Nc1ccc(-c2ncn(-c3ccc(OC(F)(F)F)cc3)n2)cc1O (stereo not shown) [Compound J179, (Z)-1-(3-(2-(1-Ethoxyethyl)-5-methylphenyl)-4-oxothiazolidin-2-ylidene)-3-(2-hydroxy-4-(1-(4-(trifluoromethoxy)phenyl)-1H-1,2,4-triazol-3-yl)phenyl)urea]	–	–	50 to 100%	50 to 100%	–
Cc1cc(-c2ncn(-c3ccc(S(=O)(=O)C(F)(F)F)cc3)n2)ccc1NC(=O)/N=C1\SCC(=O)N1c1cc(C#N)ccc1OCCC(F)(F)F [Compound J376, (Z)-1-(3-(5-Cyano-2-(3,3,3-trifluoropropoxy)phenyl)-4-oxothiazolidin-2-ylidene)-3-(2-methyl-4-(1-(4-((trifluoromethyl)sulfonyl)phenyl)-1H-1,2,4-triazol-3-yl)phenyl)urea]	50 to 100%	50 to 100%	–	–	–
Cc1ccc(OCC(F)(F)F)c(N2C(=O)CS/C2=N\C(=O)Nc2c(F)cc(-c3ncn(-c4ccc(OC(F)(F)F)cc4)n3)cc2F)c1 [Compound J79, (Z)-1-(2,6-Difluoro-4-(1-(4-(trifluoromethoxy)phenyl)-1H-1,2,4-triazol-3-yl)phenyl)-3-(3-(5-methyl-2-(2,2,2-trifluoroethoxy)phenyl)-4-oxothiazolidin-2-ylidene)urea]	–	–	50 to 100%	50 to 100%	–
COC(C)c1ccc(C)cc1N1C(=O)CS/C1=N\C(=O)Nc1ccc(-c2ncn(-c3ccc(OC(F)(F)F)cn3)n2)cc1C(F)(F)F (stereo not shown) [Compound J276, (Z)-1-(3-(2-(1-Methoxyethyl)-5-methylphenyl)-4-oxothiazolidin-2-ylidene)-3-(4-(1-(5-(trifluoromethoxy)pyridin-2-yl)-1H-1,2,4-triazol-3-yl)-2-(trifluoromethyl)phenyl)urea]	–	–	50 to 100%	50 to 100%	–
Cc1ccc(Cc2ccc(F)cc2)c(N2C(=O)CS/C2=N\C(=O)Nc2ccc(-c3ncn(-c4ccc(OC(F)(F)F)cc4)n3)cc2F)c1 [Compound J674, (Z)-1-(2-Fluoro-4-(1-(4-(trifluoromethoxy)phenyl)-1H-1,2,4-triazol-3-yl)phenyl)-3-(3-(2-(4-fluorobenzyl)-5-methylphenyl)-4-oxothiazolidin-2-ylidene)urea]	50 to 100%	50 to 100%	–	–	–
Cc1ccc(C(C)C)c(N2C(=O)CS/C2=N\C(=O)Nc2ccc(-n3cnc(-c4ccc(OC(F)(F)F)cc4)c3)cc2Cl)c1 [Compound J792, (Z)-1-(2-Chloro-4-(4-(4-(trifluoromethoxy)phenyl)-1H-imidazol-1-yl)phenyl)-3-(3-(2-isopropyl-5-methylphenyl)-4-oxothiazolidin-2-ylidene)urea]	–	–	–	–	BAW rating (% control or mortality class) ([1]; Table ABC, species BAW, 128-well diet tray assay, second instar larvae): A (50-100); mortality at 50 µg/cm2 ([2]; Trichoplusia ni, Table ABC, species CL, 128-well diet tray assay, second instar larvae, read-out: CL rating (% control or mortality class)): 50 to 100%
Cc1ccc(OCCC(F)(F)F)c(N2C(=O)CS/C2=N\C(=O)Nc2ccc(-c3cn(-c4ccc(C(F)(F)F)cc4)cn3)cc2)c1 [Compound J517, (Z)-1-(3-(5-Methyl-2-(3,3,3-trifluoropropoxy)phenyl)-4-oxothiazolidin-2-ylidene)-3-(4-(1-(4-(trifluoromethyl)phenyl)-1H-imidazol-4-yl)phenyl)urea]	50 to 100%	50 to 100%	–	–	–
CCCc1ccc(C)cc1N1C(=O)CS/C1=N\C(=O)Nc1ccc(-c2ncn(-c3ccc(OC(F)(F)F)cn3)n2)cc1F [Compound J272, (Z)-1-(2-Fluoro-4-(1-(5-(trifluoromethoxy)pyridin-2-yl)-1H-1,2,4-triazol-3-yl)phenyl)-3-(3-(5-methyl-2-propylphenyl)-4-oxothiazolidin-2-ylidene)urea]	–	–	50 to 100%	50 to 100%	–
COc1cc(COCC(F)(F)F)c(N2C(=O)CS/C2=N\C(=O)Nc2ccc(-c3ncn(-c4ccc(OC(F)(F)F)cc4)n3)cc2F)cc1OC [Compound J560]	–	–	–	–	BAW rating ([1]; Table ABC, species BAW): A (50-100); CL rating ([2]; Table ABC, species CL): A (50-100)
CCOc1ccc(C)cc1N1C(=O)CS/C1=N\C(=O)Nc1ccc(-c2ncn(-c3ccc(OC(F)(F)F)cc3)n2)cc1F [Compound J59, (Z)-1-(3-(2-Ethoxy-5-methylphenyl)-4-oxothiazolidin-2-ylidene)-3-(2-fluoro-4-(1-(4-(trifluoromethoxy)phenyl)-1H-1,2,4-triazol-3-yl)phenyl)urea]	–	–	50 to 100%	50 to 100%	–
O=C(/N=C1\SCC(=O)N1c1cc(Cl)ccc1C(F)(F)F)Nc1ccc(-c2ncn(-c3ccc(OC(F)(F)F)cc3)n2)cc1Cl [Compound J42, (Z)-1-(3-(5-Chloro-2-(trifluoromethyl)phenyl)-4-oxothiazolidin-2-ylidene)-3-(2-chloro-4-(1-(4-(trifluoromethoxy)phenyl)-1H-1,2,4-triazol-3-yl)phenyl)urea]	–	–	50 to 100%	50 to 100%	–
(Z)-1-(3-(5-(Dimethylamino)-2-isopropylphenyl)-4-oxothiazolidin-2-ylidene)-3-(2-fluoro-4-(1-(6-(trifluoromethyl)pyridazin-3-yl))-1H-1,2,4-triazol-3-yl)phenyl)urea [Compound J393]	–	–	–	–	BAW rating ([1]; Table ABC, species BAW): A (50-100); CL rating ([2]; Table ABC, species CL): A (50-100)
CCCN(CCC)c1ccc(C(C)C)c(N2C(=O)CS/C2=N\C(=O)Nc2ccc(-c3ncn(-c4ccc(OC(F)(F)F)cc4)n3)cc2CC)c1 [Compound J161, (Z)-1-(3-(5-(Dipropylamino)-2-isopropylphenyl)-4-oxothiazolidin-2-ylidene)-3-(2-ethyl-4-(1-(4-(trifluoromethoxy)phenyl)-1H-1,2,4-triazol-3-yl)phenyl)urea]	–	–	50 to 100%	0 to 50%	–
COC(C)c1ccc(C#N)cc1N1C(=O)CS/C1=N\C(=O)Nc1ccc(-c2cn(-c3ccc(S(F)(F)(F)(F)F)cc3)cn2)cc1F (stereo not shown) [Compound J606, (Z)-1-(3-(5-Cyano-2-(1-methoxyethyl)phenyl)-4-oxothiazolidin-2-ylidene)-3-(2-fluoro-4-(1-(4-(pentafluoro-λ^6-sulfaneyl)phenyl)-1H-imidazol-4-yl)phenyl)urea]	50 to 100%	50 to 100%	–	–	–
N#Cc1ccc(OCCC(F)(F)F)c(N2C(=O)CS/C2=N\C(=O)Nc2ccc(-n3cnc(-c4ccc(OC(F)(F)F)cc4)n3)cc2)c1 [Compound J406, (Z)-1-(3-(5-Cyano-2-(3,3,3-trifluoropropoxy)phenyl)-4-oxothiazolidin-2-ylidene)-3-(4-(3-(4-(trifluoromethoxy)phenyl)-1H-1,2,4-triazol-1-yl)phenyl)urea]	50 to 100%	50 to 100%	–	–	–
Cc1ccc(CC(F)(F)F)c(N2C(=O)CS/C2=N\C(=O)NCC(F)c2ccc(-c3ncn(-c4ccc(OC(F)(F)F)cc4)n3)cc2)c1 (stereo not shown) [Compound H13]	–	–	50 to 100%	50 to 100%	–
CCCc1ccc(N(C)C)cc1N1C(=O)CS/C1=N\C(=O)Nc1ccc(-n2cnc(-c3ccc(OC(F)(F)F)cc3)n2)cc1 [Compound J409, (Z)-1-(3-(5-(Dimethylamino)-2-propylphenyl)-4-oxothiazolidin-2-ylidene)-3-(4-(3-(4-(trifluoromethoxy)phenyl)-1H-1,2,4-triazol-1-yl)phenyl)urea]	50 to 100%	50 to 100%	–	–	–
